ChEMBL document CHEMBL1154260, “Synthesis and SAR of alkanediamide-linked bisbenzamidines with anti-trypanosomal and anti-pneumocystis activity” (Bioorg Med Chem Lett, 2009)

What was measured:
[1] = test system: Nucleic Acid; test: Binding affinity to poly(dA-dT)DNA assessed as change in melting temperature; assay type: nucleic-acid assay
[2] = test system: A549; test: Cytotoxicity against human A549 cells; assay type: cell-based
[3] = test system: Trypanosoma brucei rhodesiense; test: Antitrypanosomal activity against Multidrug-resistant Trypanosoma brucei rhodesiense KETRI 243; assay type: functional, organism-based
[4] = test system: Pneumocystis carinii; test: Antipneumocystis activity against Pneumocystis carinii; assay type: functional, organism-based
[5] = test system: Trypanosoma brucei brucei; test: Antitrypanosomal activity against pentamidine-sensitive Trypanosoma brucei brucei LAB 110 EATRO; assay type: functional, organism-based
[6] = Selectivity index, ratio of IC50 for human A549 cells to IC50 for Trypanosoma brucei; assay type: toxicity, cell-based; conditions: read-out: Ratio IC50
[7] = test system: Nucleic Acid; test: Binding affinity to DNA assessed as change in melting temperature; assay type: nucleic-acid assay
[8] = Selectivity index, ratio of IC50 for human A549 cells to IC50 for Pneumocystis carinii

Row | SMILES | ΔTm [1] | IC50 [2] | IC50 [3] | IC50 [4] | IC50 [5] | selectivity ratio [6] | ΔTm [7] | Ratio IC50 [8]
1 | N=C(N)c1ccc(NC(=O)CCCCCCCC(=O)Nc2ccc(C(=N)N)cc2)cc1 | 7.5 °C | 2.87 µM | 0.24 µM | 2.44 µM | 0.4 µM |  |  | 
2 | N=C(N)c1ccc(NC(=O)CCCCCCCCC(=O)Nc2ccc(C(=N)N)cc2)cc1 | 7.5 °C | 249 µM | 0.004 µM | 4.28 µM | 0.002 µM | 18900 |  | 
3 | N=C(N)c1ccc(NC(=O)CCC(=O)Nc2ccc(C(=N)N)cc2)cc1 | 7.5 °C | > 44.2 µM | 2.19 µM | 0.442 µM | 9 µM |  | 11.4 °C | 
4 | N=C(N)c1ccc(OCCCCCOc2ccc(C(=N)N)cc2)cc1 [PENTAMIDINE] | 21.6 °C |  | […] |  |  |  |  | 
5 | N=C(N)c1ccc(NC(=O)CCCCC(=O)Nc2cccc(C(=N)N)c2)cc1 | 7.5 °C | > 227 µM | 0.007 µM | 2.27 µM | 0.012 µM | 18900 |  | 
6 | N=C(N)c1ccc(NC(=O)CCCCC(=O)Nc2ccc(C(=N)N)cc2)cc1 | 7.5 °C | 1190 µM | 0.002 µM |  | 0.003 µM | 18900 | 11.4 °C | 596500
7 | N=C(N)c1cccc(NC(=O)CCCCC(=O)Nc2cccc(C(=N)N)c2)c1 | 13.8 °C |  | 0.021 µM | 33.7 µM | 0.041 µM |  | 13.8 °C | 
8 | NC(=O)c1cccc(NC(=O)CCCCC(=O)Nc2cccc(C(N)=O)c2)c1 | 7.5 °C | > 261 µM | 1.97 µM | > 100 µM |  |  |  | 
9 | N=C(N)c1ccc(NC(=O)CCCCCC(=O)Nc2ccc(C(=N)N)cc2)cc1 | 7.5 °C | > 237 µM | 0.002 µM | 2.37 µM | 0.002 µM | 18900 |  | 
10 | N=C(N)c1ccc(NC(=O)CCCCCCC(=O)Nc2ccc(C(=N)N)cc2)cc1 | 13.2 °C | 176 µM | 0.001 µM | 1.95 µM | 0.003 µM | 18900 | 13.2 °C | 
11 | N#Cc1ccc(NC(=O)CCCC(=O)Nc2ccc(C#N)cc2)cc1 | 7.5 °C |  | 7.9 µM |  | 6.5 µM |  |  | 
12 | NC(=O)c1ccc(NC(=O)CCCCC(=O)Nc2ccc(C(N)=O)cc2)cc1 | 7.5 °C |  | 1.1 µM | > 100 µM | 2.8 µM |  |  | 
13 | N=C(N)c1ccc(NC(=O)CCCC(=O)Nc2ccc(C(=N)N)cc2)cc1 | 7.5 °C | 2280 µM | 0.096 µM | 0.003 µM | 0.009 µM |  | 11.4 °C | 
14 | N=C(N)c1ccc(NC(=O)CCCCCCCCCCC(=O)Nc2ccc(C(=N)N)cc2)cc1 | 7.5 °C | 18 µM | 0.007 µM | 3.07 µM | 0.008 µM |  |  | 
